Results taken from patent publication US8586638B2, “Parakeratosis inhibitor and skin preparation for external use” (priority 2003, dated 2013).
Where a SMILES comes first, the peptide text is derived from it. [ ]: non-standard residue; d: D form. Sar = CNCC(=O)O

Experiments:
[1] = test system: pores on the cheek of healthy male subjects; assay: Effect of shrinking human pores: replica evaluation of cheek pores; format: in vivo; conditions: for Replica Evaluation (mean of n = 5), difference of pore size score before/after application: twice a day for a month, cheek; for pore-shrinking effect (conclusion from Table 2): second embodiment
Experimental: An experiment of application of sample twice a day for a month on the cheek of healthy male subjects, was conducted with each group consisting of 5 individuals. 3 weight % solution of the glycine derivatives in accordance with the invention 1 (including 15 weight % of ethanol) was prepared. pH was regulated to the range between 7.0 and 7.5, by using hydrochloric acid and/or sodium hydroxide. Control was 15 weight % ethanol solution. Said 3 weight % solution was applied to one side and said control solution was applied to the other side.
Replicas were prepared prior to and after the application to observe the change of form of pores in the same spot under a three-dimensional laser scanning microscope. The size of pores was evaluated visually 13 steps from 1 to 13 (larger number indicates larger pore size), and the difference between the resulted evaluations before/after the application experiment was then calculated to study the effectiveness of each specimen.
An experiment of application of sample twice a day for a month on the cheek of healthy male subjects, was conducted with each group consisting of 5 individuals. 3 weight % solution of the glycine derivatives and the salts thereof as well as the aminosulfuric acid derivatives and the salts thereof in accordance with the invention 2 (including 15 weight % of ethanol), 2 weight % solution of ACES (including 15 weight % of ethanol), 3 weight % solution of CAPS (including 15 weight % of ethanol), and 3 weight % solution of CAPSO (including 15 weight % of ethanol) were prepared. pH was regulated to the range between 7.0 and 7.5, by using hydrochloric acid and/or sodium hydroxide. 15 weight % ethanol solution was used as control. Said sample solutions was applied to one side, and said control solution was applied to the other side.

[2] = test system: parakeratosis and skin roughness caused by oleic acid on the back of hairless mice; assay: Parakeratosis inhibition effect test: oleic acid applied to the back of hairless mice, visual skin roughness and parakeratosis level; format: in vivo, hairless mice (HR-1); parameters: key to Evaluation Visual (mean of 4 mice), skin roughness: 0.0 = no roughness, 2.0 = control application; 0.25 steps; conditions: for effect of inhibiting parakeratosis (conclusion from Table 1) / effect of inhibiting parakeratosis (conclusion from Table 4): hairless mice, oleic acid; for effect of inhibiting parakeratosis (conclusion from Table 1): first embodiment; for Evaluation Parakeratosis (mean of 4 mice): control 2.0; for Evaluation Visual (mean of 4 mice), skin roughness: score 0.0 no roughness, 2.0 control; for effect of inhibiting parakeratosis (conclusion from Table 4): fourth embodiment
Experimental: A 3 weight % water solution (including 30 weight % ethanol) was prepared as the evaluation specimen of the glycine derivatives in accordance with the invention 1. The pH was regulated to the range between 7.0 to 7.5, by using hydrochloric acid and sodium hydroxide. When the solubility was low, the solution was adjusted accordingly.
100 microliters of 10 weight % oleic acid (solvent: ethanol) was applied to the back of hairless mice (HR-1, Hoshino laboratory animals). Thereafter, 100 microliters of sample solution was applied (glycine derivatives in accordance with said invention 1) at each time. This procedure was repeated for 3 days. The day after the application, the skin condition of the backs was observed by using a CCD camera to evaluate the skin roughness (stratified ablation of the skin surface stratum corneum and red spots). The skin condition was evaluated visually, with scoring the skin condition of control application to 2.0 and the skin condition of no roughness to 0.0, in a 0.25 point step in response to the skin condition. At the same time, the skin surface stratum corneum of the back of hairless mice was peeled off by using a tape for staining the nucleus with haematoxylin to observe the degrees of parakeratosis (parakeratosis level) and evaluate in 0.25 step in the range from 1.0 to 3.0. The higher evaluation points indicates the larger number of parakeratotic corneocytes count, i.e., severer parakeratosis.
The samples to be evaluated of the glycine derivatives and the salts thereof as well as the aminosulfuric acid derivatives and the salts thereof in accordance with the invention 2 were prepared mainly 3 weight % solution (including 30 weight % ethanol, excluding Hydantoic acid and ACES which include 20 weight % ethanol). pH was regulated by using hydrochloric acid or sodium hydroxide to be 7.0 to 7.5. When the solubility was low, then the solution was prepared accordingly.
100 microliters of 10 weight % oleic acid (solvent: ethanol) was applied to the back of Hairless mice (HR-1, Hoshino laboratory animals) Thereafter, 100 microliters of sample solution (glycine derivatives in accordance with the invention 2) was applied thereon at each time. This procedure was repeated for 3 days. The day after the application, the skin condition of the backs was observed by using a CCD camera to evaluate the skin roughness (stratified ablation of the skin surface stratum corneum and red spots). The skin condition was evaluated visually, with scoring the skin condition of control application to 2.0 and the skin condition of no roughness to 0.0, in a 0.25 point step in response to the skin condition. At the same time, the skin surface stratum corneum of the back of hairless mice was peeled off by using a tape for staining the nucleus with haematoxylin to observe the degrees of parakeratosis and evaluate in 0.25 step in the range from 1.0 to 3.0. The higher evaluation points indicates the larger number of parakeratotic corneocytes count, i.e., severer parakeratosis.

[3] = test system: skin roughness caused by oleic acid on the back of hairless mice; assay: Inhibitory effect on skin roughness by the application of oleic acid (TEWL value); format: in vivo, hairless mice (HR-1); parameters: ΔTEWL: unit not given here; conditions: for ΔTEWL: after 10 weight % oleic acid, 3 days, four mice per group, control 12.0
Experimental: To study the inhibitory effect on the skin roughness by the application of oleic acid by the glycine derivatives and the salts thereof as well as the aminosulfuric acid derivatives and the salts thereof in accordance with the invention 2, the […] (TEWL value) before and after the application was measured to compare the difference therebetween with the value of control (control solution) in order to determine the effect. The preparation of samples and the application procedure were in accordance with the embodiment 4. The TEWL value was measured by means of TEWA meter TM210 (Courage+Khazaka Inc.).
100 microliters of 10 weight % oleic acid (solvent: ethanol) was applied to the back of hairless mice (HR-1, four in each group). Thereafter, 100 microliters of sample solutions (glycine derivatives and the salts thereof as well as the aminosulfuric acid derivatives and the salts thereof) in accordance with the invention 2 were applied at each time. This procedure was repeated for 3 days. The day after the application, TEWL value of the back of mice was measured and the values were averaged. The larger delta-TEWL value indicates severer aggravation of skin roughness.

[4] = 3 weight % solution (15 weight % ethanol), 13 steps, larger = larger pore, control 0.2
[5] = sample 3 weight % in aqueous 30 weight % ethanol, after 10 weight % oleic acid, 3 days, range 1.0 to 3.0, higher = severer
[6] = sample 3 weight % in aqueous 30 weight % ethanol, after 10 weight % oleic acid, 3 days
[7] = sample 3 weight %, larger = severer roughness
[8] = Table 4, sample 3 weight % in aqueous 30 weight % ethanol (hydantoic acid: 20 weight % ethanol), range 1.0 to 3.0, higher = severer
[9] = Table 4, sample 3 weight % in aqueous 30 weight % ethanol (hydantoic acid: 20 weight % ethanol)
[10] = Table 4, sample 1 weight % in aqueous 30 weight % ethanol (ACES: 20 weight % ethanol), range 1.0 to 3.0
[11] = Table 4, sample 1 weight % in aqueous 30 weight % ethanol (ACES: 20 weight % ethanol)

Compound | Replica Evaluation (mean of n = 5), difference of pore size score before/after application [1, 4] | pore-shrinking effect (conclusion from Table 2) ([1]; human cheek) | effect of inhibiting parakeratosis (conclusion from Table 1) [2] | Evaluation Parakeratosis (mean of 4 mice) [2, 5] | Evaluation Visual (mean of 4 mice), skin roughness [2, 6] | Evaluation Parakeratosis (mean of 4 mice) [2, 8] | Evaluation Visual (mean of 4 mice), skin roughness [2, 9] | effect of inhibiting parakeratosis (conclusion from Table 4) [2] | other results
CC(=O)N[C@@H](CCC(=O)O)C(=O)O [N-acetyl-L-glutamic acid] | −0.8 | pore-shrinking effect was observed | have the effect of inhibiting parakeratosis | 1.2 | 1.2 | – | – | – | –
NCCC(=O)O [beta-alanine] | −0.9 | pore-shrinking effect was observed | have the effect of inhibiting parakeratosis | 1.5 | 1.6 | – | – | – | –
Cl.NCC(N)=O [glycine-amide HCL, glycine-amide hydrochloride, reference compound] | – | – | – | – | – | 2.0 | 1.9 | did not exhibit such effect | ΔTEWL [3, 7]: 12.4
CN(CC(=O)O)C(=O)CN [glycyl-sarcosine, glycyl sarcosine] (H-Gly-[Sar]-OH) | – | – | – | – | – | 1.4 | 1.5 | have the effect of inhibiting parakeratosis | Replica Evaluation (mean of n = 5), difference of pore size score before/after application ([1]; Table 5, 3.0 weight % solution (15 weight % ethanol), control 0.3): −0.8; effect of pore-shrinking (conclusion from Table 5) ([1]; human cheek, fifth embodiment): demonstrated the effect of pore-shrinking
CCOC(=O)CNC(=O)CN.Cl [glycylglycine ethyl ester HCL, glycylglycine ethyl ester hydrochloride salt] | – | – | – | – | – | 1.1 | 1.3 | have the effect of inhibiting parakeratosis | decrease of delta-TEWL value as compared to the control solution (conclusion from Table 6) ([3]; hairless mice, oleic acid, seventh embodiment): significant decrease of delta-TEWL value; ΔTEWL [3, 7]: 6.7
O=C(O)CNC(=O)c1ccccc1 [hippuric acid, reference compound] | – | – | – | – | – | – | – | – | ΔTEWL ([3]; sample 1 weight %): 10.5; Evaluation Parakeratosis (mean of 4 mice) [2, 10]: 1.9; Evaluation Visual (mean of 4 mice), skin roughness [2, 11]: 1.8
O=C1CNC(=O)N1 [hydantoin, reference compound] | – | – | – | – | – | – | – | did not exhibit such effect | ΔTEWL ([3]; sample 1 weight %): 17.6; Evaluation Parakeratosis (mean of 4 mice) [2, 10]: 2.0; Evaluation Visual (mean of 4 mice), skin roughness [2, 11]: 2.1
CC(C(=O)O)N1CCOCC1 (centres unmarked) [methylmorpholino acetate, methylmorpholino acetic acid, reference compound] | – | – | – | – | – | 2.0 | 1.9 | – | ΔTEWL [3, 7]: 10.8
O=C(O)CN(CC(=O)O)CC(=O)O [nitrilotriacetate, nitrilotriacetic acid, reference compound] | – | – | – | – | – | – | – | – | ΔTEWL ([3]; sample 0.4 weight %): 11.5; Evaluation Parakeratosis (mean of 4 mice) ([2]; Table 4, sample 0.4 weight % in aqueous 30 weight % ethanol, range 1.0 to 3.0): 2.0; Evaluation Visual (mean of 4 mice), skin roughness ([2]; Table 4, sample 0.4 weight % in aqueous 30 weight % ethanol): 1.9
O=C(O)CNC(=O)Cc1ccccc1 [phenaceturic acid] | −0.8 | pore-shrinking effect was observed | have the effect of inhibiting parakeratosis | 1.1 | 1.2 | – | – | – | –
O=C(O)CNCP(=O)(O)O [phosphomethylglycine, phosphonomethylglycine, reference compound] | – | – | – | – | – | – | – | – | ΔTEWL ([3]; sample 1 weight %): 11.4; Evaluation Parakeratosis (mean of 4 mice) [2, 10]: 2.1; Evaluation Visual (mean of 4 mice), skin roughness [2, 11]: 1.9
CNCC(=O)O [sarcosine, N-methylglycine] | −1.3 | pore-shrinking effect was observed | have the effect of inhibiting parakeratosis | 1.2 | 1.3 | – | – | – | –
O=C(O)CNC(CO)(CO)CO [tricine, reference compound] | – | – | – | – | – | – | – | – | ΔTEWL ([3]; sample 2 weight %): 12.2; Evaluation Parakeratosis (mean of 4 mice) ([2]; Table 4, sample 2 weight % in aqueous 30 weight % ethanol, range 1.0 to 3.0): 2.1; Evaluation Visual (mean of 4 mice), skin roughness ([2]; Table 4, sample 2 weight % in aqueous 30 weight % ethanol): 2.0
